One may read the inhibition as the share of the control response that was lost under treatment.

Active and inactive are the calls of the source. The rule behind the calls is not given here.

The values that follow come from ChEMBL document CHEMBL4152345, “Discovery of Novel 1,3,8-Triazaspiro[4.5]decane Derivatives That Target the c Subunit of F1/FO-Adenosine Triphosphate (ATP) Synthase for the Treatment of Reperfusion Damage in Myocardial Infarction” (J Med Chem, 2018).

Data set [1] in a line: Drug uptake in human HeLa cells mitochondrial fraction by HPLC-HRMS analysis. Format: ADME, mitochondria, Mitochondria.
The nature of data set [2]: Drug uptake in human HeLa cells endoplasmic reticulam fraction by HPLC-HRMS analysis. Format: ADME, subcellular.
Data set [3] can be described thus: Drug uptake in human HeLa cells cytosolic fraction by HPLC-HRMS analysis. Format: ADME, subcellular. The following applies: cytosol.
The subject of data set [4] is HeLa. Briefly: Inhibition of F1F0-ATP synthase subunit C in human HeLa cells assessed as reduction of ionomycin-induced Ca2+ mediated mPTP opening at 1 uM preincubated for 30 secs followed by ionomycin addition by calcein-cobalt based assay relative to control. It counts as cell-based.
Data set [5] is filed under the species Mus musculus. Nature of the data set: Inhibition of Inhibition of F1F0-ATP synthase subunit C in SV129 mouse liver mitochondria assessed as reduction of Ca2+ induced mPTP opening by measuring reduction in mitochondrial swelling at 1 uM measured after 10 mins relative to control.
The test system of data set [6] is HeLa. Nature of the data set: Effect on basal mitochondrial membrane potential in human HeLa cells by TMRM dye based fluorescence assay. Format: ADME, cell-based.
The subject of data set [7] is HeLa. Briefly: Effect on mitochondrial calcium uptake in human HeLa cells after 24 hrs by aequorin luminometric analysis. Format: ADME, cell-based.
Data set [8] has as its system HeLa. Briefly: Effect on number of mitochondria in human HeLa cells after 24 hrs by mtCherry staining based microscopic analysis. It counts as ADME, cell-based.
The subject of data set [9] is HeLa. Briefly: Effect on network volume of mitochondria in human HeLa cells after 24 hrs by calcin staining based microscopic analysis. Format: ADME, cell-based.
Data set [10] relates to HeLa. Briefly: Cytotoxicity against human HeLa cells assessed as reduction in cell viability at 1 to 10 uM after 24 to 48 hrs by MTT assay. It counts as cell-based. A general note: Formazan colour is commonly taken as a measure of viable cells.
Data set [11] concerns HeLa. Nature of the data set: Cytotoxicity against human HeLa cells assessed as reduction in cell viability at 1 to 10 uM after 72 hrs by MTT assay. Format: cell-based.
In data set [12] the test system is HeLa. Briefly: Inhibition of F1F0-ATP synthase subunit C in human HeLa cells assessed as reduction of cytC release at 1 uM after 5 mins by immunoblot analysis. Format: cell-based.
Data set [13] has as its system HeLa. Briefly: Inhibition of F1F0-ATP synthase subunit C in human HeLa cells assessed as reduction in apoptosis by TUNEL assay. It counts as cell-based.
Data set [14] relates to HeLa. Nature of the data set: Inhibition of F1F0-ATP synthase subunit C in human HeLa cells assessed as enzyme dimerization by measuring mitochondrial permeability transition at 1 uM by PLA based assay. Format: cell-based.
The subject of data set [15] is Heart. Nature of the data set: Cardioprotective activity in Langendorff perfused Wistar rat heart model of ischemia-reperfusion injury model assessed as increase left ventricular developed pressure at 10 uM dosed during first 10 mins reflow. It counts as functional.
For data set [16], the system named is Heart. Nature of the data set: Cardioprotective activity in Langendorff perfused Wistar rat heart model of ischemia-reperfusion injury model assessed as reduction of coronary perfusion pressure at 10 uM dosed during first 10 mins reflow. It counts as functional. Set-up: scale not given: the % may be the effect or the level left.
The test system of data set [17] is Heart. Nature of the data set: Cardioprotective activity in Langendorff perfused Wistar rat heart model of ischemia-reperfusion injury model assessed as reduction of end diastolic pressure at 10 uM dosed during first 10 mins reflow. It counts as functional. Also on record: scale not given: the % may be the effect or the level left.
The subject of data set [18] is Heart. Briefly: Cardioprotective activity in Langendorff perfused Wistar rat heart model of ischemia-reperfusion injury model assessed as reduction of apoptosis at 10 uM dosed during first 10 mins reflow by TUNEL assay. Format: functional.
Data set [19] deals with HeLa. Briefly: Reduction in mitochondrial ATP content in human HeLa cells expressing mitochondrially targeted Photinus pyralis luciferase at 1 uM by luciferin-luciferase assay. Format: ADME, cell-based.
The test system of data set [20] is HeLa. Briefly: Reduction in mitochondrial ATP content in human HeLa cells expressing mitochondrially targeted Photinus pyralis luciferase at 1 uM in presence of 100 um histamine by luciferin-luciferase assay. It counts as ADME, cell-based.
The subject of data set [21] is HeLa. Briefly: Effect on mitochondrial morphology in human HeLa cells after 24 hrs by mtCherry staining based microscopic analysis. Format: ADME, cell-based.
The subject of data set [22] is HeLa. Nature of the data set: Binding affinity of F1F0-ATP synthase c subunit in human HeLa cells at 60 to 80 degC after 30 mins by cellular thermal shift assay. It counts as cell-based.
Data set [23] is filed under the species Homo sapiens. Briefly: Binding affinity of F1F0-ATP synthase c subunit in isolated mitochondria of human HeLa cells after 30 mins by UPLC-XEVO-TQD analysis.
Data set [24] in a line: Drug uptake in human HeLa cells mitochondrial fraction assessed as retention time by HPLC-HRMS analysis. Format: ADME, mitochondria, Mitochondria.
Data set [25] concerns the target ATP synthase F(1) complex subunit alpha, mitochondrial (Homo sapiens) (UniProt P25705). Nature of the data set: Binding affinity of ATP5A in human HeLa cells assessed as melting temperature after 30 mins by cellular thermal shift assay. It counts as cell-based.

ATP synthase F(1) complex subunit alpha, mitochondrial (Homo sapiens), sequence (P25705 whole entry, one chain of several): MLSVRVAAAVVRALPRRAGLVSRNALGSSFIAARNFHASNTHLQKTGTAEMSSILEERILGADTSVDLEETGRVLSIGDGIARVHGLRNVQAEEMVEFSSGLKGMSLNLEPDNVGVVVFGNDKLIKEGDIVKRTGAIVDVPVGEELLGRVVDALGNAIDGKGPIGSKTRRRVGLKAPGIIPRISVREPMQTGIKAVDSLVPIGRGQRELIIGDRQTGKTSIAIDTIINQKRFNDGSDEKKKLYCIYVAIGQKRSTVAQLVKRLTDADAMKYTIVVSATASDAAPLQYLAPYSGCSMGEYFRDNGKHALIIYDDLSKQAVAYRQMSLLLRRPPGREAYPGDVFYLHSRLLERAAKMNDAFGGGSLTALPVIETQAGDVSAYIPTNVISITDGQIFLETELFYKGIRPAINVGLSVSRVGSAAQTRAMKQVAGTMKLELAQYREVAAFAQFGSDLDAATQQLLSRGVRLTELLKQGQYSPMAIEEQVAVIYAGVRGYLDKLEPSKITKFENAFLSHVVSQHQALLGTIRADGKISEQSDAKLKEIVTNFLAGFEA

As to `CCC1/C=C/C=C/C[C@H](C)[C@@H](O)[C@](C)(O)C(=O)[C@@H](C)[C@H](O)[C@@H](C)C(=O)[C@H](C)[C@@H](O)[C@H](C)/C=C/C(=O)OC2[C@@H](C)C(CC1)OC1(CC[C@@H](C)C(C[C@H](C)O)O1)[C@@H]2C` (stereo not given in full), the Drug uptake result in data set [1], in data set [2] and in data set [3] was “Active” throughout.
Take `O=C1NCN(c2ccc(F)cc2)C12CCN(S(=O)(=O)c1ccc(Cl)s1)CC2`: the inhibition in [4] was 12.6%.
For `O=C1NCN(c2ccccc2)C12CCN(S(=O)(=O)c1ccc(Cl)s1)CC2`, the inhibition in data set [4] is 66.8%. For the same compound, the inhibition entry in data set [5], in [12], in data set [13] and in [14] was “Active” each time. The Activity result was “Non-Toxic” in [6]; “Non-Toxic” in [7]; “Non-Toxic” in [8]; “Non-Toxic” in [9]; “Non-Toxic” in data set [10]; “Toxic” in data set [11]. Besides, the Activity in data set [15] is given as 36.4%; in [16] it was 17.5%; in data set [17], 72%; in [19], “Non-Toxic”; in [20], “Non-Toxic”; in data set [21] it was “Non-Toxic”. Besides, the outcome in [18] was Active.
Turning to `O=C1N=CN(c2ccc(F)cc2)C12CCN(Cc1ccccc1)CC2`, the inhibition in [4] was 28.8%.
On the same count and under the same terms, the result for `O=C1N=CN(c2ccccc2)C12CCN(Cc1ccccc1)CC2` reads 41.4%.
On to `O=C1NCN(c2cccc(C(F)(F)F)c2)C12CCN(Cc1ccccc1)CC2`, for which, in data set [4], the inhibition is 65.5%. In addition, the inhibition entry in [5], in data set [12], in [13] and in data set [14] was “Active” in each case. In addition, the Activity entry in data set [6] was “Non-Toxic”; in [7], “Non-Toxic”; in [8], “Non-Toxic”; in data set [9] it was “Non-Toxic”; in data set [10], “Non-Toxic”; in data set [11] it was “Toxic”. Also, the Activity result in data set [19], in data set [20] and in [21] was “Non-Toxic” in each case.
Regarding `O=C(NC1CCCCC1)N1CCC2(CC1)C(=O)NCN2c1ccccc1`, the inhibition in data set [4] was 51.3%.
As for `O=C(c1ccccc1)N1CCC2(CC1)C(=O)NCN2c1ccccc1`, in [4], the inhibition is 43.9%.
On the same count and under the same terms, the result for `O=C1NCN(c2ccccc2)C12CCN(C(=S)NC1CCCCC1)CC2` reads 33.6%.
Turning to `Cc1ccc(S(=O)(=O)N2CCC3(CC2)C(=O)NCN3c2ccccc2)cc1`, the result in data set [22] and in data set [23] was Active. The inhibition in data set [4] was 30.7 to 50%. Moreover, the inhibition result in data set [5] is “Active”. In addition, the results for the Drug uptake entry in [1], in data set [2] and in data set [3] were “Active”, “Not Active” and “Not Active”, respectively. Also, the Retention_time in [24] is 8.2 min. In data set [25], the outcome was inactive. In addition, the Activity result in [19] and in data set [20] was “Toxic” throughout.
Turning to `O=C1N=CN(c2ccc(Cl)cc2)C12CCN(Cc1ccccc1)CC2`, the inhibition in [4] was 57.4%. For the same compound, the inhibition result in data set [5], in data set [12] and in data set [13] was “Active” each time. The Activity entry in data set [6] is recorded as “Non-Toxic”; in data set [7], “Non-Toxic”; in data set [8], “Non-Toxic”; in data set [9], “Non-Toxic”; in data set [10], “Non-Toxic”; in [11], “Toxic”. The Activity entry in [19] is “Toxic”; in data set [20], “Non-Toxic”; in data set [21] it was “Non-Toxic”.
For `O=C(Nc1ccccc1)N1CCC2(CC1)C(=O)NCN2c1ccccc1`, in data set [4], the inhibition entry is “inactive”.
The same measure, in the same setting: the value for `COc1ccc(N2C=NC(=O)C23CCN(Cc2ccccc2)CC3)cc1` was 43.8%.
On the same count and under the same terms, the result for `CS(=O)(=O)N1CCC2(CC1)C(=O)NCN2c1ccccc1` reads 47.5%.
In the case of `O=C1NCN(c2ccc(F)cc2)C12CCN(S(=O)(=O)c1ccc(F)cc1)CC2`, the inhibition in [4] is 9.1%.
The same measure, in the same setting: the result for `CC(C)c1ccc(N2C=NC(=O)C23CCN(Cc2ccccc2)CC3)cc1` reads 6.5%.
In the case of `O=C1N=CN(c2cccc(C(F)(F)F)c2)C12CCN(Cc1ccccc1)CC2`, in data set [4], the inhibition is 32.1%.
On the same count and under the same terms, the result for `O=C1NCN(c2ccc(F)cc2)C12CCN(Cc1ccccc1)CC2` reads 42.9%; that for `O=C1NCN(c2ccc(Cl)cc2)C12CCN(Cc1ccccc1)CC2`, 51.4%.
Same read-out and setting: the result for `COc1ccc(N2CNC(=O)C23CCN(Cc2ccccc2)CC3)cc1` reads 26.2%.
For the compound `Cc1ccc(N2C=NC(=O)C23CCN(Cc2ccccc2)CC3)cc1`, the inhibition in [4] was 18.7%.
Still for that read-out and setting: the value for `Cc1ccc(N2CNC(=O)C23CCN(Cc2ccccc2)CC3)cc1` was 18.1%; that for `CC(=O)N1CCC2(CC1)C(=O)NCN2c1ccccc1` was 47.9%; that for `CC(C)c1ccc(N2CNC(=O)C23CCN(Cc2ccccc2)CC3)cc1` was 20%.
On the same count and under the same terms, the result for `O=C1NCN(c2ccccc2)C12CCN(Cc1ccccc1)CC2` reads 36.8%.
Turning to `O=C1NCN(c2ccccc2)C12CCN(S(=O)(=O)c1ccc(F)cc1)CC2`, the inhibition in data set [4] was 45.5%.
